Results from paper PMC10928503 (Nature medicine, 2023).
Each block holds one compound with its values, some of them ahead of it.

How the values were obtained:
[1] = tested on: FcTHL (Firmicutes CAG:176 thiolase); test: LC-MS/MS of N-acetyl 5-ASA formed, Michaelis-Menten; type: biochemical, Firmicutes bacterium CAG:176; details: 1 mM acetyl-CoA constant; 20 mM HEPES pH 7.5, 50 mM NaCl, 1 mM MgCl2, 1 mM TCEP, 5 uM enzyme, 37 °C
[2] = molecular target: T1, FpGNAT (acyl-CoA N-acetyltransferase from F. prausnitzii) (Faecalibacterium duncaniae, UniProt C7H1G6); test: LC-MS/MS end-point acetylation assay; type: biochemical; details: 1 mM 5-ASA
T1 sequence (C7H1G6 1-201): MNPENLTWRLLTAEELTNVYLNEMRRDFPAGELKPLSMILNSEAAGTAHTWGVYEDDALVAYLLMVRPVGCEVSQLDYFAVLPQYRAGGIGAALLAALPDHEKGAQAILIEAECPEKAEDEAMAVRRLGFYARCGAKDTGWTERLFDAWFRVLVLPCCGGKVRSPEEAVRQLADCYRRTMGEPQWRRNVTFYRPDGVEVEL

[3] = molecular target: Firmicutes CAG:176 thiolase (FcTHL) (Firmicutes CAG:176 (uncultured Firmicutes)); test: crystal structure

Km [1]: 1880 ± 460 µM
Compound: Nc1ccc(O)c(C(=O)O)c1 [5-ASA]
LC-MS/MS end-point acetylation assay ([2]; 1 mM acetyl-CoA, 50 uM enzyme, pH 7.5, 37 °C, 6 h): convert 5-ASA to N-acetyl-5-ASA in the presence of acetyl-CoA

Compound: CC(=O)SCCNC(=O)CCNC(=O)[C@H](O)C(C)(C)COP(=O)(O)OP(=O)(O)OC[C@H]1O[C@@H](n2cnc3c(N)ncnc32)[C@H](O)[C@@H]1OP(=O)(O)O [acetyl-CoA]
LC-MS/MS end-point acetylation assay ([2]; acetyl donor, same): convert 5-ASA to N-acetyl-5-ASA in the presence of acetyl-CoA

stoichiometry N [3]: 4
Compound: Firmicutes CAG:176 thiolase (FcTHL) (enzyme)
